Legend:
Format in all cases: biochemical
[1] = molecular target: K9D3 (derivative of Anaerostipes caccae KARI) (Anaerostipes caccae, UniProt B0MCX7, S56A/S58D); experiment: Inhibition of purified KARI by DHMB, spectrophotometric NADPH oxidation assay; conditions: competitive vs. acetolactate, 30° C., pH 6.8, NADPH 0.2 mM, read-out: KI Values for KARI Inhibition by DHMB Isomers
Procedure: (§1) The buffer was 0.1 M K^+ Hepes, pH 6.8, containing 10 mM MgCl2 and 1 mM EDTA. NADPH was present at 0.2 mM, and racemic acetolactate was present at either 3 mM or 0.725 mM (S) isomer. The rate of NADPH oxidation in the presence and absence of either fast or slow DHMB was measured. Vmax for each sample was calculated from the observed rate and the known acetolactate Km using the Michaelis-Menten equation. A volumetric Ki was estimated for each measurement in the presence of DHMB using the Michaelis-Menten equation as modified for competitive inhibition vs. acetolactate (the Km term in the MM equation is multiplied by (1+[I]/Ki), and the equation is solved for Ki. The results were converted to mM upon completion of the NMR experiment and are shown in Table 5.

[2] = molecular target: JEA1 (derivative of Pseudomonas fluorescens KARI) (Pseudomonas fluorescens, UniProt Q4K608); experiment: as above; conditions: competitive vs. acetolactate, 30° C., pH 6.8, NADPH 0.2 mM, read-out: KI Values for KARI Inhibition by DHMB Isomers
Procedure: as §1

[3] = molecular target: dihydroxyacid dehydratase (DHAD) (Streptococcus mutans serotype c, UniProt Q8DRT7); experiment: Inhibition of DHAD conversion of DHIV to 2-KIV by DHMB, colorimetric assay; conditions: read-out: inhibition constants (Ki) for DHAD
Procedure: 101: 999-1004 (1993). The assay took place in a 2 mL Eppendorf tube placed in a heating block maintained at 30° C. […] The assay was initiated by adding a 10× concentrated stock of substrate. Samples were removed (0.35 mL) at times 0.1 and 30 minutes, and the reaction was stopped by mixing into 0.35 mL 0.1 N HCl with 0.05% 2,4-dinitrophenylhydrazine (Aldrich) in a second Eppendorf tube. After incubating 30 minutes at room temperature, 0.35 mL of 4N NaOH was added to the mixture, mixed, and centrifuged at 15,000×G for 2 minutes in a centrifuge (Beckman-Coulter Microfuge 18). The absorbance of the solution at 540 nm was then measured in a 1 cm pathlength cuvette using a Cary 300 Bio UV-Vis spectrophometer (Varian). Based on a standard curve using authentic 2-KIV (Fluka), 1 OD absorbance at 540 nm is produced by 0.28 mM 2-KIV. […] Both forms of DHMB behaved liked competitive inhibitors of DHIV. […] The fast and slow isomers of DHMB had calculated inhibition constants of 7 mM and 5 mM, respectively.

Chain of JEA1 (derivative of Pseudomonas fluorescens KARI) (Q4K608 whole entry): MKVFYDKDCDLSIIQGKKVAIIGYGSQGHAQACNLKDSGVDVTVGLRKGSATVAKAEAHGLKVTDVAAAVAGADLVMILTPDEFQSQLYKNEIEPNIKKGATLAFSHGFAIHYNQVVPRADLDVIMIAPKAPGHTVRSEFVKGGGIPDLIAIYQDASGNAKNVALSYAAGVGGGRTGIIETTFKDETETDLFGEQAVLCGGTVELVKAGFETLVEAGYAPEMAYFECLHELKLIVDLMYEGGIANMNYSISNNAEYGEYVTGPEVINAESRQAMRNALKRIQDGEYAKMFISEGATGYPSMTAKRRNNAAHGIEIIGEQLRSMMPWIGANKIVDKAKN
Chain of dihydroxyacid dehydratase (DHAD) (Q8DRT7 whole entry): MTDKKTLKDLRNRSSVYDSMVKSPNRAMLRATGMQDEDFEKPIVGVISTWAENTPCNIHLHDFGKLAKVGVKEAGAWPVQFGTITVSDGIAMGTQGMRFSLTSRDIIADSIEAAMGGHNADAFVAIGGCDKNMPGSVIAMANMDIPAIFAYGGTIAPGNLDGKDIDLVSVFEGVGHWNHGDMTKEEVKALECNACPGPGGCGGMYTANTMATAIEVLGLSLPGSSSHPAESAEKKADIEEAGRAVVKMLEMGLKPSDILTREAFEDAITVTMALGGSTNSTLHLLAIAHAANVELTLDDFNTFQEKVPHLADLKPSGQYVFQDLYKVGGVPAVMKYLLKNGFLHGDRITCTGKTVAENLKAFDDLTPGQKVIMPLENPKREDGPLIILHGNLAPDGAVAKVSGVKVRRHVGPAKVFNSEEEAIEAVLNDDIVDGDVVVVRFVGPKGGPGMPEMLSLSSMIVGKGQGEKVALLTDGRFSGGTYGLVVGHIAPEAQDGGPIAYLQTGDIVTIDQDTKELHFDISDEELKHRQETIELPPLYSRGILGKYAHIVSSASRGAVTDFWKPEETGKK
Chain of K9D3 (derivative of Anaerostipes caccae KARI) (B0MCX7 1-343, stated change not applied): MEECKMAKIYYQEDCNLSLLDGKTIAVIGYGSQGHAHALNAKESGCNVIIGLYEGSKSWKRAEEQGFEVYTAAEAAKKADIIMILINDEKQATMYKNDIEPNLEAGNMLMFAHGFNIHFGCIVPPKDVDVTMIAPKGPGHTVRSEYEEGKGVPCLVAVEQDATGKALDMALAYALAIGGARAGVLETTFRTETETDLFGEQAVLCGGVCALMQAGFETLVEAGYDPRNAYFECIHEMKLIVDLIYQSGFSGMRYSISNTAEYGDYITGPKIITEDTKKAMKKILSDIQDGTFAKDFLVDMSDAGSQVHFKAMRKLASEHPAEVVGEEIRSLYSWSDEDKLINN

Compound | Ki [1] [µM] | Ki [2] [µM] | Ki [3] [µM]
C[C@H](O)[C@](C)(O)C(=O)O [Fast DHMB, 2,3-dihydroxy-2-methyl butyrate] | 300 | 230 | 7000
C[C@@H](O)[C@](C)(O)C(=O)O [Slow DHMB, 2,3-dihydroxy-2-methyl butyrate] | 200 | 230 | 5000

Reference: patent US20120258873A1 (priority 2011, published 2012)
